Measurements as given in patent US20140329754A1, “COMPOSITIONS AND METHODS FOR TREATING MYELODYSPLASTIC SYNDROME” (Telik, Inc., priority 2010, published 2014).
Structures can show the parent of a compound that is named as a salt.

Key:
[1] = system: Patients with an International Prognostic System Score (IPSS) Low to Intermediate-1 Risk Myelodysplastic syndrome; assay: Clinical study of ezatiostat hydrochloride tablets in IPSS low to intermediate-1 risk MDS patients: hematologic improvement (efficacy); type: in vivo, human; conditions: for Duration of HI-E Response, # Censored / Duration of HI-E Response, # Event: number of responders; for significant RBC transfusion reduction, patients: five of 11 patients; for HI-E Response Rate (95% Confidence Interval): hydrochloride
[2] = Same clinical study: non-hematologic adverse events (safety, all patients treated); type: in vivo, human
Experimental: Eighty-seven patients were randomized and treated at 23 investigational sites. After initial dose ranging in 14 patients, two dose levels were selected for further study. Subsequently, 37 patients were treated at 3 grams daily for two weeks followed by a one week rest period, and 36 patients were treated at 2 grams daily for three weeks followed by a one week rest period. The data on these 73 patients was pooled for this preliminary analysis.
The safety data is based on all patients treated.

[3] = system: MDS patients; conditions: patients administered lenalidomide; reported; cited from earlier work
[4] = 1 g b.i.d. 3 weeks on & 1 week off
[5] = 1.5 g b.i.d. 2 weeks on & 1 week off

## CCOC(=O)[C@@H](N)CCC(=O)N[C@@H](CSCc1ccccc1)C(=O)N[C@@H](C(=O)OCC)c1ccccc1 [Telintra, ezatiostat hydrochloride]
[1]; [4]
  Duration of HI-E Response, # Censored, percent of responders: (66.7%)
  Duration of HI-E Response, # Event, percent of responders: (33.3%)
  Duration of HI-E Response, Median (95% CI): 46.1 Weeks
  Duration of HI-E Response, Min, Max: 2.4-46.1 Weeks
  Duration of HI-E Response, # Censored: 4
  Duration of HI-E Response, # Event: 2
[1]; 1 g b.i.d. 3 weeks on & 1 week off (N = 31)
  Time to HI-E Response, Median: 8.4 Weeks
[1]; 1 g b.i.d. 3 weeks on & 1 week off (N = 31), 6 responders
  Time to HI-E Response, Mean: 8.9 Weeks
[1]; [5]
  Duration of HI-E Response, # Censored, percent of responders: (28.6%)
  Duration of HI-E Response, # Event, percent of responders: (71.4%)
  Duration of HI-E Response, Median (95% CI): 18.4 Weeks
  Duration of HI-E Response, Min, Max: 1.9-51.0 Weeks
  Duration of HI-E Response, # Censored: 2
  Duration of HI-E Response, # Event: 5
[1]; 1.5 g b.i.d. 2 weeks on & 1 week off (N = 29)
  Time to HI-E Response, Median: 8.1 Weeks
[1]; 1.5 g b.i.d. 2 weeks on & 1 week off (N = 29), 7 responders
  Time to HI-E Response, Mean: 8.4 Weeks
[1]; 2 of 19 patients, 95% CI 1.3-33.1
  bilineage HI rate (HI-E and HI-N): 11%
[1]; 3 of 20 patients, 95% CI 3.2-37.9
  Hematologic Improvement-Neutrophil (HI-N) rate: 15%
[1]; 4 of 38 RBC transfusion-dependent patients
  RBC transfusion independence, patients: 11%
[1]; 11 of 38 RBC transfusion-dependent patients
  clinically significant RBC transfusion reduction (reduction of 4U/8 weeks, IWG 2006), patients: 29%
[1]; 13 of 60 evaluable patients, pooled 3 g/day and 2 g/day schedules, 95% CI 12.1-34.2
  overall Hematologic Improvement-Erythroid (HI-E) rate: 22%
[1]; in responders
  median hemoglobin level increase: 2.0 gram/dL
[1]; lenalidomide pre-treated vs not pre-treated patients
  increase in response rate: over 100%
[1]; logistic regression analysis
  effect of prior Revlimid treatment on HI-E response: enhance HI-E response
[1]; no prior Revlimid, no prior DMTI, 6 of 23 patients, 95% CI 10.2%-48.4%
  HI-E rate: 26%
[1]; no prior Revlimid, no prior DMTI
  significant RBC transfusion reduction, patients: 45%
[1]; no prior Revlimid, prior DMTI, 0 of 17 patients, 95% CI 0%-19.5%
  HI-E rate: 0%
[1]; of the four patients with del 5q minus, one had failed prior Revlimid
  complete cytogenetic response (number of patients): two
[1]; one patient
  duration of complete remission following discontinuation of therapy: more than 12 months
[1]; patients with no prior Revlimid (lenalidomide) treatment, N=27, efficacy evaluable population
  HI-E Response Rate (95% Confidence Interval): about 22%
[1]; patients with prior Revlimid (lenalidomide) treatment, N=13, efficacy evaluable population
  HI-E Response Rate (95% Confidence Interval): about 46%
[1]; pooled schedules
  median duration of HI-E response: 46 weeks
  range of duration of HI-E response: 2-51 weeks
[1]; prior DMTI treatment, logistic regression, p=0.023
  change in odds for a HI-E response: five-fold decrease
[1]; prior Revlimid, no prior DMTI, 6 of 15 patients, 95% CI 16.3%-67.7%
  HI-E rate: 40%
[1]; prior Revlimid, no prior DMTI
  significant RBC transfusion reduction, patients: 45%
[1]; prior Revlimid, no prior DMTI, three of 11 patients
  transfusion independence, patients: 27%
[1]; whole study
  cytogenetic complete responses (number of patients): three
[2]; all patients treated
  diarrhea, Grade 1 adverse event incidence: 25%
  diarrhea, Grade 2 adverse event incidence: 7%
  diarrhea, Grade 3 adverse event incidence: 3%
  nausea, Grade 1 adverse event incidence: 45%
  nausea, Grade 2 adverse event incidence: 16%
  nausea, Grade 3 adverse event incidence: 1%
  vomiting, Grade 1 adverse event incidence: 30%
  vomiting, Grade 2 adverse event incidence: 12%
  vomiting, Grade 3 adverse event incidence: 2%
[2]; patients with prior DMTI treatment
  incidence of GI AEs with prior DMTI treatment: increased incidence of GI AEs

## Nc1cccc2c1CN(C1CCC(=O)NC1=O)C2=O (stereo not drawn) [lenalidomide, 3-(4-amino-l-oxoisoindolin-2-yl)piperidine-2,6-dione]
[3]
  patients exhibiting clinically recognizable response: about 50%
